Laboratory results from the supplement of paper PMC8671470.

How the values were obtained:
Details in all cases: 72 h
BV-173 [1] = test system: BV-173
Outline: (§1)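 The IC50 was derived from log-logistic dose–response fitting. Each of fifteen myeloid leukaemia cell lines, seeded in RPMI 1640 within its linear growth range, was exposed in 384-well plates to five tenfold doses (1 to 10,000 nM) in duplicate for 72 h at 37 °C and 5% CO2. Luminescent ATP viability readings were normalised to vehicle and to a positive control at 10 µM before four-parameter curve fitting.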

HEL [2] = test system: HEL
Outline: as §1

HL-60 [3] = test system: HL-60
Outline: as §1

K-562 = test system: K-562
Outline: as §1

KCL-22 [4] = test system: KCL-22
Outline: as §1

KG-1 [5] = test system: KG-1
Outline: as §1

KU-812 [6] = test system: KU-812
Outline: as §1

LAMA-84 [7] = test system: LAMA-84
Outline: as §1

ML-2 [8] = test system: ML-2
Outline: as §1

MOLM-13 [9] = test system: MOLM-13
Outline: as §1

MV4-11 [10] = test system: MV4-11
Outline: as §1

Mono-Mac-6 [11] = test system: Mono-Mac-6
Outline: as §1

NOMO-1 [12] = test system: NOMO-1
Outline: as §1

SHI-1 [13] = test system: SHI-1
Outline: as §1

THP-1 [14] = test system: THP-1
Outline: as §1

BV-173 [15] = experiment: cell viability (% survival relative to DMSO control, bortezomib = 0%); higher = less cytotoxic
Outline: (§2)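 In 384-well plates pre-printed with compounds at 1, 10, 100, 1000 or 10000 nM, duplicate wells received cells from 10 AML and 5 CML lines at densities within the linear growth range. The plates stayed at 37 °C with 5% CO2 for 72 h before CellTiter-Glo luminescence was recorded. Each entry is averaged percent survival. Scaling placed vehicle at 100% and a 10 µM positive control at 0%.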

HEL [16] = experiment: as above
Outline: as §2

HL-60 [17] = experiment: as above
Outline: as §2

KCL-22 [18] = experiment: as above
Outline: as §2

KG-1 [19] = experiment: as above
Outline: as §2

KU-812 [20] = experiment: as above
Outline: as §2

LAMA-84 [21] = experiment: as above
Outline: as §2

ML-2 [22] = experiment: as above
Outline: as §2

MOLM-13 [23] = experiment: as above
Outline: as §2

MV4-11 [24] = experiment: as above
Outline: as §2

Mono-Mac-6 [25] = experiment: as above
Outline: as §2

NOMO-1 [26] = experiment: as above
Outline: as §2

SHI-1 [27] = experiment: as above
Outline: as §2

THP-1 [28] = experiment: as above
Outline: as §2

HL-60 [29] = experiment: area under dose-response curve (viability, 1 nM-10 uM) (fraction (0-1)); higher = more sensitive
Outline: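 A rescreen of the full library used HL-60 cells in RPMI 1640 with 10% FBS on 384-well plates, run in duplicate at five tenfold concentrations (1–10,000 nM). Each screen included DMSO or 100 nM of one of three metabolic inhibitors and ran 72 h at 37 °C, 5% CO2. CellTiter-Glo viability was scaled between DMSO and 10 μM proteasome-inhibitor wells. Any area under the curve comes from four-parameter log-logistic fits with drc and PharmacoGx.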

COc1ccc(C(=O)Nc2c(Cl)cncc2Cl)cc1OC1CCCC1 [Piclamilast]
Details	IC50 (cell viability) [µM]
BV-173 [1]	> 10
HEL [2]	> 10
HL-60 [3]	> 10
K-562	> 10
KCL-22 [4]	> 10
KG-1 [5]	> 10
KU-812 [6]	> 10
LAMA-84 [7]	> 10
ML-2 [8]	> 10
MOLM-13 [9]	> 10
MV4-11 [10]	> 10
Mono-Mac-6 [11]	> 10
NOMO-1 [12]	> 10
SHI-1 [13]	> 10
THP-1 [14]	> 10

Details	area under dose-response curve, co-treatment: AZD3965 100 nM	area under dose-response curve, co-treatment: DMSO vehicle	area under dose-response curve, co-treatment: GSK2194069 100 nM	area under dose-response curve, co-treatment: pictilisib 100 nM	cell viability, 1 nM [%]	cell viability, 10 nM [%]	cell viability, 100 nM [%]	cell viability, 1000 nM [%]	cell viability, 10000 nM [%]
BV-173 [15]	–	–	–	–	86.3	107	92.1	114	99.7
HEL [16]	–	–	–	–	95.3	108	102	119	109
HL-60 [17]	–	–	–	–	87.1	103	65.2	87.5	115
HL-60 [29]	< 0.0301	< 0.0301	< 0.0301	< 0.0301	–	–	–	–	–
KCL-22 [18]	–	–	–	–	95.3	101	92.7	102	108
KG-1 [19]	–	–	–	–	97.7	102	86	99.2	104
KU-812 [20]	–	–	–	–	91.4	94.6	90	105	99.1
LAMA-84 [21]	–	–	–	–	87.5	114	91.2	110	103
ML-2 [22]	–	–	–	–	84.4	104	102	88.2	110
MOLM-13 [23]	–	–	–	–	89.2	110	67.4	103	88.1
MV4-11 [24]	–	–	–	–	92.5	110	92.8	118	114
Mono-Mac-6 [25]	–	–	–	–	93.6	107	80.6	100	87.7
NOMO-1 [26]	–	–	–	–	87.1	104	94.6	97.1	110
SHI-1 [27]	–	–	–	–	94.1	105	106	99.3	113
THP-1 [28]	–	–	–	–	94	104	97.6	102	109

O=C(O)C[C@@]1(O)C[C@@H](CCCCCCc2ccc(Cl)cc2Cl)OC1=O
Details	IC50 (cell viability) [µM]
BV-173 [1]	> 10
HEL [2]	> 10
HL-60 [3]	> 10
K-562	> 10
KCL-22 [4]	> 10
KG-1 [5]	> 10
KU-812 [6]	> 10
LAMA-84 [7]	> 10
ML-2 [8]	> 10
MOLM-13 [9]	> 10
MV4-11 [10]	> 10
Mono-Mac-6 [11]	> 10
NOMO-1 [12]	> 10
SHI-1 [13]	> 10
THP-1 [14]	> 10

Details	area under dose-response curve, co-treatment: AZD3965 100 nM	area under dose-response curve, co-treatment: DMSO vehicle	area under dose-response curve, co-treatment: GSK2194069 100 nM	area under dose-response curve, co-treatment: pictilisib 100 nM	cell viability, 1 nM [%]	cell viability, 10 nM [%]	cell viability, 100 nM [%]	cell viability, 1000 nM [%]	cell viability, 10000 nM [%]
BV-173 [15]	–	–	–	–	102	101	97.8	96.3	96.4
HEL [16]	–	–	–	–	110	118	99.2	89.2	95.6
HL-60 [17]	–	–	–	–	97.1	123	100	89.3	99.8
HL-60 [29]	< 0.0301	< 0.0301	< 0.0301	< 0.0301	–	–	–	–	–
KCL-22 [18]	–	–	–	–	97.1	107	88.4	97.5	112
KG-1 [19]	–	–	–	–	100	110	99.4	112	97.9
KU-812 [20]	–	–	–	–	92.2	99.9	96	98.7	92.4
LAMA-84 [21]	–	–	–	–	99.6	99.8	92.7	97.3	96.7
ML-2 [22]	–	–	–	–	103	116	106	105	106
MOLM-13 [23]	–	–	–	–	102	103	110	103	110
MV4-11 [24]	–	–	–	–	95.3	86.1	90.5	102	98.4
Mono-Mac-6 [25]	–	–	–	–	96.3	111	102	92.8	96.3
NOMO-1 [26]	–	–	–	–	101	103	97.4	98.8	99.5
SHI-1 [27]	–	–	–	–	99.7	124	98.4	102	96.4
THP-1 [28]	–	–	–	–	103	97	103	99.7	90.3
